Test results reported in patent US20050019825A9, “Common ligand mimics: pseudothiohydantoins” (priority 2002, published 2005).
Where two headings read alike, the source gives them in different places.

Experiments:
[1] = biological target: dihydrodipicolinate reductase (DHPR) (Escherichia coli, UniProt P04036); assay: DHPR kinetic assay, spectrophotometric oxidation of NADPH (340 nm); assay type: biochemical
Experimental: For DHPR analysis, the compounds were screened using a kinetic protocol that spectrophotometrically evaluates oxidation of NADPH.
Stock solutions of each of the reagents were prepared in the following concentrations. Dilutions of the stock solutions were prepared prior to running the assay in the concentrations indicated below. DHPR was diluted in 10 mM HEPES at a pH of 7.4. DHPS (dihydrodipicolinate synthase) was not diluted and was stored in eppindorf tubes.
The L-ASA (L-aspartate semialdehyde) solution was prepared in the following manner. 180 μM stock solution of ASA was prepared. 100 μl of the ASA stock solution was mixed with 150 μl of concentrated NaHCO3 and 375 μl of H2O. For use in the assay, 28.8 mM L-ASA was equal to 625 μl of the solution. The L-ASA stock solution was kept at a temperature of −20° C. After dilution, the pH of the 28.8 mM solution was checked and maintained between 1 and 2.
The DHPS reaction was monitored at 340 nm prior to and after addition of the inhibitor to detect background reaction with the inhibitor. The solution for background detection was a 945 μl solution containing 0.1 HEPES (pH 7.8), 1 mM pyruvate, 6 μM NADPH, 40 μM L-ASA, and 7 μl of 1 mg/ml DHPS at 25° C. in the volumes provided above. The sample solution was then mixed and incubated for 10 minutes. Next, 500 nM solutions of the inhibitors and enough DMSO to provide a final DMSO concentration of 5% of the total assay volume were added. The solution was mixed and incubated for an additional 6 minutes.
In DHPR samples, 5 μl of the diluted DHPR enzyme were added. The sample was mixed for 20 seconds and then the reaction was run for 10 minutes. After a 50 second lag, the samples were read in a Cary spectrophotometer at 340 nm. Reading of the samples was continued until 300 seconds. Cuvette #1 contained the control reaction (no inhibitor), and cuvette #2 contained the positive control reaction in which Cibacron Blue at 2.58 μM was substituted for inhibitor to yield 70 to 80% inhibition. The substrate was kept at a level at least 10 times the Km. The final concentration of L-ASA was about 1 mM.

[2] = biological target: T1, lactate dehydrogenase (LDH) (Oryctolagus cuniculus, UniProt P13491); assay: LDH kinetic assay, spectrophotometric oxidation of NADH (340 nm); assay type: biochemical, Rabbit; conditions: for IC50: common ligand mimics, Examples 23/24, LDH from Rabbit Muscle
T1 construct: 10 μl of LDH from Rabbit Muscle; from tissue; host or cells: rabbit muscle
Experimental: For LDH analysis, the compounds were screened using a kinetic protocol that spectrophotometrically evaluates oxidation of NADH.
(§1) Stock solutions of each of the reagents were prepared in the following concentrations. Dilutions of the stock solutions were prepared prior to running the assay in the concentrations indicated below.
The LDH reaction was monitored at 340 nm prior to and after addition of the inhibitor to detect background reaction with the inhibitor. Solutions of 100 μl of the inhibitors in DMSO were prepared to provide a final DMSO concentration of 5% of the total assay volume. These solutions were incubated for 6 minutes at 25° C. in a 990 μl of a solution containing 0.1 M HEPES, pH 7.4, 10 μM NADH, and 2.5 mM of pyruvate. The reaction was then initiated with 10 μl of LDH from Rabbit Muscle (0.5 μg/ml; 1:2000 dilution of 1.0 mg/ml). After the enzyme was added, the solution was mixed for 20 seconds, and the reaction was run for 10 minutes. After a 50 second lag, the samples were read in a Cary spectrophotometer at 340 nm. Reading of the samples was continued until 300 seconds. Cuvette #1 contained the control reaction (no inhibitor), and cuvette #2 contained the positive control reaction in which Cibacron Blue at 10.3 μM was substituted for inhibitor to yield 50 to 70% inhibition. The substrate was kept at a level at least 10 times the Km.

[3] = biological target: T2, alcohol dehydrogenase (ADH) (Saccharomyces cerevisiae, UniProt P00330); assay: ADH kinetic assay, spectrophotometric reduction of NAD+ (340 nm); assay type: biochemical, Bakers Yeast
T2 construct: 10 μl of ADH from Bakers Yeast; host or cells: bakers yeast
T2 sequence (P00330 1-348): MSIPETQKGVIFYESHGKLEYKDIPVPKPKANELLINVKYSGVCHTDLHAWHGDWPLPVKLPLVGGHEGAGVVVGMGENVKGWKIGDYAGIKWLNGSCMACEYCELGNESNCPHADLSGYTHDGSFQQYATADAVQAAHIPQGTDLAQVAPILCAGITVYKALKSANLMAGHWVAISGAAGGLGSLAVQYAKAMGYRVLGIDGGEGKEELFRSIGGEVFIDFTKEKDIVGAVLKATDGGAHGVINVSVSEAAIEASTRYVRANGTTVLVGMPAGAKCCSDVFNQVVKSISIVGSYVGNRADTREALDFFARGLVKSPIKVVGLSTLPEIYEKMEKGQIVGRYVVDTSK
Experimental: For ADH analysis, the compounds were screened using a kinetic protocol that spectrophotometrically evaluates reduction of NAD+.
as §1
The ADH reaction was monitored at 340 nm prior to and after addition of the inhibitor to detect background reaction with the inhibitor. Solutions of 100 μl of the inhibitors in DMSO were prepared to provide a final DMSO concentration of 5% of the total assay volume. These solutions were incubated for 6 minutes at 25° C. in a 990 μl of a solution containing 0.1 M HEPES, pH 8.0, 80 μM NAD+, and 130 mM of ethanol. The reaction was then initiated with 10 μl of ADH from Bakers Yeast ([…]; 1:400 dilution of 1.0 mg/ml). After the enzyme was added, the solution was mixed for 20 seconds, and the reaction was run for 10 minutes. After a 50 second lag, the samples were read in a Cary spectrophotometer at 340 nm. Reading of the samples was continued until 300 seconds. […] The substrate was kept at a level at least 10 times the Km. The final concentration of […] was about 2.5 mM.
Where only a simple read was desired, as in the case of NAD+ concentration determination, 13 μl (10 M stock) of ethanol was used to drive the reaction, and 10 μl of pure enzyme (1 mg/ml) was used. NAD+ was soluble at 2 mM, which allowed the concentration determination step to be skipped. In this situation, the procedure was as follows. All of the ingredients except for the enzyme were mixed together. The solution was mixed well and the absorbance at 340 nm read. The enzyme was added and read again at OD 340 after the absorbance stopped changing, generally 10 to 15 minutes after the enzyme was added.

[4] = common ligand mimics, Examples 23/24 (FIG. 5, FIG. 6), read-out: IC50 for DHPR

dihydrodipicolinate reductase (DHPR), sequence (P04036 whole entry): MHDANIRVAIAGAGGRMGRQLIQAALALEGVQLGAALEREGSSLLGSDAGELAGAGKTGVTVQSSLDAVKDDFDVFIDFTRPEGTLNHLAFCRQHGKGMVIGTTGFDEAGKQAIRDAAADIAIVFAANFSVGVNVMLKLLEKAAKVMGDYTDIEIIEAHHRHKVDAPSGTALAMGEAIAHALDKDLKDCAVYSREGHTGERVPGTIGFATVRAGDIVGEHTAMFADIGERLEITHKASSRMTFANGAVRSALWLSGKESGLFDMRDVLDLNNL

Structure (SMILES) | IC50 [1, 4] [µM] | IC50 [2] [µM] | IC50 [3] [µM] | inhibition of ADH (in words) ([3]; Example 24 (FIG. 6)) | IC50 [1] [µM] | inhibition at 2.58 µM ([1]; Cibacron Blue at 2.58 μM, read-out: inhibition of DHPR, positive control) [%] | inhibition at 10.3 µM ([2]; Cibacron Blue at 10.3 μM, read-out: inhibition of LDH, positive control) [%] | inhibition at 15.5 µM ([3]; Cibacron Blue at 15.5 μM, read-out: inhibition of ADH, positive control) [%]
N=C1NC(=O)C(=Cc2ccc(C(=O)O)cc2)S1 [4-(2-imino-4-oxo-thiazolidin-5-ylidenemethyl)-benzoic acid] | > 25 | > 100 | > 100 | no inhibition | – | – | – | –
COc1cc(O)ccc1C=C1SC(=N)NC1=O [5-(4-hydroxy-2-methoxy-benzylidene)-2-imino-thiazolidin-4-one] | > 75 | – | – | – | – | – | – | –
COc1cc(C=C2SC(N)=NC2=O)ccc1O [5-(4-hydroxy-3-methoxy-benzylidene)-2-imino-thiazolidin-4-one] | – | > 100 | > 100 | – | > 75 | – | – | –
N=C1NC(=O)C(=Cc2ccc(O)c([N+](=O)[O-])c2)S1 [5-(4-hydroxy-3-nitro-benzylidene)-2-imino-thiazolidin-4-one] | – | 27.9 | > 150 | – | > 100 | – | – | –
Nc1c(S(=O)(=O)O)cc(Nc2ccc(Nc3nc(Cl)nc(Nc4ccccc4S(=O)(=O)O)n3)c(S(=O)(=O)O)c2)c2c1C(=O)c1ccccc1C2=O [Cibacron Blue, reference compound] | – | – | – | – | – | 70 to 80 | 50 to 70 | 50 to 60
